According to US6624202B2, “Inhibitors of copper-containing amine oxidases” (priority 2000, dated 2003):
Counter-ions that a name gives are not always drawn. Like-named read-outs stand apart in the source and are kept apart here.

What was measured:
[1] = biological target: T1, Recombinant human VAP-1 SSAO (Homo sapiens, UniProt Q16853); assay: In vitro inhibition of VAP-1 SSAO activity (coupled colourimetric method); format: biochemical; settings: for IC50: 1 mM benzylamine, 1 h at 37° C.
T1 sequence (Q16853 1-763): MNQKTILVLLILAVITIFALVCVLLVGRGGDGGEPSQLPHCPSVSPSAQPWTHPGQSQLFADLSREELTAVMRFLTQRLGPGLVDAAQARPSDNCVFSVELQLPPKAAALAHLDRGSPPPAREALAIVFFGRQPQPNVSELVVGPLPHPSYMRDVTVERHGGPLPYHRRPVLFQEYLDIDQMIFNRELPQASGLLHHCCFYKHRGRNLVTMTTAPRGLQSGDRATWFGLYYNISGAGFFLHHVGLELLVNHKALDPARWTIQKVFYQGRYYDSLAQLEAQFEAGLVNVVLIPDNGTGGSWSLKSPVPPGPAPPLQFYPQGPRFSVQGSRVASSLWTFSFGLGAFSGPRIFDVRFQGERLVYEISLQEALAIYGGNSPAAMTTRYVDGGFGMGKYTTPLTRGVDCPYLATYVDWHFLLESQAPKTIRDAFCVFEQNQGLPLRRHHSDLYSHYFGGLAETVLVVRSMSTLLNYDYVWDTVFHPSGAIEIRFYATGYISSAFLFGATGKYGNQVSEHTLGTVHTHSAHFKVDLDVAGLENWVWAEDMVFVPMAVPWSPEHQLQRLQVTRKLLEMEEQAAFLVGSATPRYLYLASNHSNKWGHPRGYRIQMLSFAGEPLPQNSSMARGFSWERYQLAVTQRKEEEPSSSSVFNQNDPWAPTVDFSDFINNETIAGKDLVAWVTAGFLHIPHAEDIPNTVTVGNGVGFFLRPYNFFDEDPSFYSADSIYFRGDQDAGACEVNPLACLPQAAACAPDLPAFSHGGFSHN
Method: VAP-1 SSAO activity was measured using the coupled colourimetric method essentially as described for monoamine oxidase and related enzymes (Holt, A., et al., Anal. Biochem. 244:384-392 (1997)). Recombinant human VAP-1 SSAO expressed in Chinese Hamster Ovary (CHO) cells was used as a source of VAP-1 SSAO for activity measurements. […] These cells and their culture have previously been described (Smith, D. J., et al., J. Exp. Med. 188:17-27 (1998)). A cell lysate was prepared by suspending approximately 3.6×10^8 cells in 25 ml lysis buffer (150 mM NaCl, 10 mM Tris-Base pH 7.2, 1.5 mM MgCl2, 1% NP40) and incubating at 4° C. overnight on a rotating table. The lysate was clarified by centrifugation at 18000 g for 5 min at room temperature and the supernatant used directly in the assay. The VAP-1 SSAO assay was performed in 96 well microtitre plates as follows. To each well was added a predetermined amount of inhibitor if required. […] Controls lacked inhibitor. The inhibitor was in a total volume of 20 μl in water. The following reagents were then added. 0.2 M potassium phosphate buffer pH 7.6 to a total reaction volume of 200 μl, 45 μl of freshly made chromogenic solution containing 1 mM 2,4-dichlorophenol, 500 μM 4-aminoantipyrine and 4 U/ml horseradish peroxidase and an amount of CHO cell lysate containing VAP-1 SSAO that caused a change of 0.6 A490 per h. […] The plates were incubated for 30 min at 37° C. and the background absorbance measured at 490 nm using a Wallac Victor II multilabel counter. To initiate the enzyme reaction 20 μl 10 mM benzylamine (final concentration=1 mM) was added and the plate incubated for 1 h at 37° C. The increase in absorbance, reflecting VAP-1 SSAO activity, was measured at 490 nm. Inhibition was presented as percent inhibition compared to control after correcting for background absorbance and IC50 values calculated using GraphPad Prism.

Total rat MAO = Total rat MAO activity (rat liver mitochondrial preparation, colourimetric); format: biochemical; settings: rat liver mitochondria; 0.5 mM tyramine; 1 h at 37° C.; read-out: Total MAO inhibitory activity IC50
Method: Rat MAO was prepared from rat liver by rinsing the 1 g liver sample several times in 14 ml KCl-EDTA-solution to remove all blood. Then 1 g liver sample was homogenised in 4 ml ice-cold potassium phosphate buffer (0.1 M, pH 7.4) with an Ultra-Turrax homogeniser (setting 11 000 rpm, 4×10 s). After centrifugation at 500 g for 10 min at 4° C. the supernatant was carefully withdrawn and was centrifuged at 12 300 g for 15 min at 4° C. The supernatant was discharged and sedimented mitochondria were resuspended in 4 ml fresh phosphate buffer and centrifuged as previously. The mitochondria were suspended in 4 ml phosphate buffer and homogenized with an Ultra-Turrax homogeniser (setting 11 000 rpm, 2×10 s). Mitochondrial preparate was aliquoted and stored at −70° C. Total MAO activity was measured in a similar way as for VAP-1 SSAO except that 2,4-dichlorophenol was replaced by 1 mM vanillic acid. To each well was added a predetermined amount of inhibitor if required. The amount of inhibitor varied in each assay but was generally at a final concentration of between 10 nM and 800 μM. Controls lacked inhibitor. The inhibitor was in a total volume of 20 μl in water. The following reagents were then added. 0.2 M potassium phosphate buffer pH 7.6 for a total reaction volume of 300 μl, 50 μl of fleshly made chromogenic solution (as above) and 50 μl of MAO preparation. The plates were incubated for 30 min at 37° C. and the background absorbance measured at 490 nm using a Wallac Victor II multilabel counter. To initiate the enzyme reaction 20 μl of 5 mM tyramine (final concentration 0.5 mM) was added and the plate incubated for 1 h at 37° C. The increase in absorbance, reflecting MAO activity, was measured at […]. Inhibition was presented as percent inhibition compared to control after correcting for background absorbance and IC50 values calculated using GraphPad Prism. Clorgyline and pargyline (inhibitors of MAO-A and -B respectively) at 0.5 μM were added to some wells as positive controls for MAO inhibition.

[2] = lysate of CHO cells expressing recombinant human VAP-1 SSAO, read-out: VAP-1 SSAO inhibitory activity IC50
[3] = ratio of total rat MAO IC50 to human VAP-1 SSAO IC50
[4] = VAP-1 SSAO inhibitory activity IC50, lysate of CHO cells expressing recombinant human VAP-1 SSAO

Compound	IC50 [1, 2]	Selectivity for VAP-1 SSAO over MAO [1, 3]	IC50 (Total rat MAO)	IC50 [1, 4]	Selectivity for VAP-1 SSAO over MAO [1]
2-(1-methylhydrazino)-1-phenylethanol hydrogenmaleate [Compound 6]	65 nM	137	8900 nM		
C[C@@H]([C@H](O)c1ccccc1)N(C)N (racemic) [Compound 10]		120	36000 nM	300 nM	
CC(C(O)c1ccccc1)N(C)N (racemic) [Compound 11]		94	16000 nM	170 nM	
C[C@@H]([C@H](O)c1ccccc1)N(C)N (racemic) [Compound 12]		138		290 nM	
CCN(N)[C@@H](C)[C@H](O)c1ccccc1 (racemic) [Compound 13]	1520 nM	16			
CCCN(N)C(C)C(O)c1ccccc1 (racemic) [Compound 14]	129000 nM	>6			
C[C@@H]([C@H](O)c1ccccc1)N(N)CC1CC1 (racemic) [Compound 15]	1380 nM	7			
CC(C(O)c1ccccc1)N(N)Cc1ccccc1 (racemic) [Compound 16]	4000 nM	62			
C[C@@H]([C@H](O)c1ccccc1)N(N)Cc1ccccc1 (racemic) [Compound 17]	34000 nM	6			
COc1ccc(CN(N)C(C)C(O)c2ccccc2)cc1 (racemic) [Compound 18]	2600 nM	9			
CN(N)C(C)(C)C(O)c1ccccc1 (racemic) [Compound 20]	520 nM	98			
CC[C@@H]([C@H](O)c1ccccc1)N(C)N (racemic) [Compound 21]	260 nM	158			
CCC[C@@H](NN)[C@@H](O)c1ccccc1 (racemic) [Compound 22]	1200 nM	9			
CCC[C@@H]([C@H](O)c1ccccc1)N(C)N (racemic) [Compound 23]	260 nM	108			
CC(C)CN(N)CC(O)c1ccccc1 (racemic) [Compound 24]	350 nM	32			
CN(N)CC(O)c1ccccc1Cl (racemic) [Compound 29]	270 nM	85			
CN(N)CC(O)c1ccc(Cl)cc1 (racemic) [Compound 30]	310 nM		21000 nM		68
COc1cccc(C(O)CNN)c1 (racemic) [Compound 33]	52 nM	175	9100 nM		

Compound	IC50 [1, 2]	Selectivity for VAP-1 SSAO over MAO [1, 3]	IC50 (Total rat MAO)	IC50 [1, 4]	Selectivity for VAP-1 SSAO over MAO [1]
COc1cccc(C(O)CN(C)N)c1 (racemic) [Compound 34]	280 nM		44000 nM		157
COc1ccc(C(O)CNN)cc1 (racemic) [Compound 35]	29 nM	207			
COc1ccc(C(O)CNN)cc1 (racemic) [Compound 36]	17 nM	294			
COc1ccc(C(CN(C)N)OC)cc1 (racemic) [Compound 37]	420 nM	105			
NN(Cc1ccccc1)C(CO)Cc1ccccc1 (racemic) [Compound 38]	> 50000 nM	≈10			
NN(Cc1ccccc1)C1CCCCC1O (racemic) [Compound 41]	21900 nM	5			
NN(Cc1ccccc1)[C@@H]1CCCC[C@H]1O (racemic) [Compound 42]	3700 nM	29	106000 nM		
CN(N)[C@@H]1CCCC[C@]1(O)c1ccccc1 (racemic) [Compound 43]	520 nM	19			
COc1cc2c(cc1OC)C(CCO)N(N)CC2 (racemic) [Compound 45]	8100 nM	6			
NN1Cc2ccccc2CC1CO (racemic) [Compound 46]	> 10000 nM	<61			
COc1cc2c(cc1OC)CN(N)C(CO)C2 (racemic) [Compound 47]	> 10000 nM	<150			
C[C@@H]([C@H](O)c1ccccc1)N(C)N (relative stereo) [Compound 2, (1R*,2S*)-2-(1-Methylhydrazino)-1-phenyl-1-propanol hydrochloride]		111		350 nM	
C[C@H]([C@@H](O)c1ccccc1)[N+](C)(C)N (relative stereo) [Compound 4, (1R*,2S*)-1-(2-hydroxy-1-methyl-2-phenylethyl)-1,1-dimethylhydrazinium iodide]	> 50000 nM	≈10			
CN(N)[C@H](c1ccccc1)C(O)c1ccccc1 (stereo in doubt) [Compound 5, (1R*,2S*)-2-(1-methylhydrazino)-1,2-diphenylethanol hydrogemnaleate]	410 nM	132			
C[C@@H]([C@H](O)c1ccccc1)N(C)N [Compound 1, (1R,2S)-2-(1-Methylhydrazino)-1-phenyl-1-propanol hydrogenmaleate]		141		220 nM	
COc1cccc(C(CN(C)N)OC)c1 (stereo not shown) [Compound 7, 1-[2-methoxy-2-(m-methoxyphenyl)ethyl]-1-methylhydrazine Hydrogenfumarate]	410 nM	107			
COc1cc2c(cc1OC)C(CO)N(N)CC2 (stereo not shown) [Compound 8, 2-Amino-6,7-dimethoxy-1,2,3,4-tetrahydroisoquinoline-1-methanol hydrochloride]	> 10000 nM	<8			
COc1ccc(C(O)CN(C)N)cc1 (stereo not shown) [Compound 9, 2-(1-methylhydrazino)-1-(p-methoxyphenyl)ethanol hydrogenfumarate]	310 nM	116			
